# Reference: patent US20230279433A1, “METHODS AND COMPOSITIONS FOR THE PRODUCTION OF ADENO-ASSOCIATED VIRUS” (priority 2021, published 2023)
# Key:
# Assay type in all cases: cell-based
# second HEK293 cell line [1] = experiment: AAV productivity with DMSO supplementation 30-120 minutes post-transfection, 3 L single-use bioreactors; details: DMSO 120 minutes vs 30 minutes post-transfection, pH 7.0, 39° C.
# Procedure: (§1) Cell transfection was performed generally as described in Grieger et al. (2016) Molecular Therapy 24(2): 287-297. Briefly, transfection mixes were prepared by mixing calculated volumes of vector(s), transfection media, and polyethylenimine (PEI), all at ambient temperature, and allowed to equilibrate before the transfection mixes were added to the cells. Post-transfection bioreactor setpoint shifts were performed 2 hours post-transfection, and cells were harvested 72 hours post-transfection. Harvested cells were lysed as described in Grieger et al. (2016) Molecular Therapy 24(2): 287-297. Crude lysate samples were collected following centrifugation to remove cellular debris. Productivity was measured by vector genome titer and capsid yield. Vector genome (VG) titer was determined by droplet digital PCR (ddPCR) by standard methods using primer/probe sets specific to the transgene payload of the vector comprising the transgene. Capsid yield was determined using enzyme-linked immunosorbent assays (ELISAs) by standard methods with an immobilized antibody directed against an epitope of the capsid as encoded by the vector comprising the capsid sequences. Percentage of intact vector genomes (% Full capsids) was calculated by dividing the vector genome productivity determined by ddPCR by the number of capsids determined by ELISA.
# Based on the findings above, the effects of post-transfection pH, and the effect of supplementing the culture media with DMSO at 30-120 minutes post-transfection were further tested using a different representative AAV particle. Experiments were performed with a second HEK293 cell line according to the methods described in Examples 1 and 5 using 3 L single-use bioreactors.
# AAV productivity, in terms of vector genome (VG) titer (FIG. 8A), capsid yield (FIG. 8B), and percent intact vector genomes (% Full; FIG. 8C), was measured as described in Example 1.
# [2] = system: AAV producer cells (HEK293 cells); experiment: AAV productivity with culture media additives supplemented two hours post-transfection (shake flasks)
# Procedure: For each parameter tested, HEK293 cells were expanded by shake flask culture with a target seed density of >0.25E6 viable cells/mL and a target final density of <6E6 viable cells/mL. […]
# as §1, with “Harvested cells were lysed as described in Grieger et al. (2016) Molecular Therapy 24(2): 287-297. Crude lysate samples were collected following centrifugation to remove cellular debris.” left out, “ELISA. […]” for “ELISA.”
# second HEK293 cell line [3] = experiment: AAV productivity at different DMSO concentrations, shake flasks
# Procedure: as §1
# The conditions of DMSO supplementation were further tested using different representative AAV particles. Experiments were performed with a second HEK293 cell line according to the methods described in Example 1 using shake flasks.
# AAV productivity, in terms of vector genome (VG) titer (FIGS. 9A and 10A), capsid yield (FIGS. 9B and 10B), and percent intact vector genomes (% Full; FIGS. 9C and 10C), was measured as described in Example 1.
# [4] = system: AAV producer cells (HEK293 cells); experiment: DMSO time course analysis of AAV productivity; details: 1.5% (v/v) DMSO added two hours pre-transfection and up to 30 minutes post-transfection; compared to the other time points tested
# Procedure: For each parameter tested, HEK293 cells were expanded by shake flask culture with a target seed density of >0.25E6 viable cells/mL and a target final density of <6E6 viable cells/mL. Expanded cells were inoculated into an Applikon 3 L Glass Bioreactor containing the appropriate amount of cell culture medium prior to transfection at a 2 L working volume.
# as §1, with “Post-transfection bioreactor setpoint shifts were performed 2 hours post-transfection, and cells were harvested 72 hours post-transfection. Harvested cells were lysed as described in Grieger et al. (2016) Molecular Therapy 24(2): 287-297. Crude lysate samples were collected following centrifugation to remove cellular debris.” left out, “ELISA. […]” for “ELISA.”
compound,measurement,setting,value
"C[S+](C)[O-] [DMSO, dimethyl sulfoxide]",VG titers,second HEK293 cell line [1],similar
same,capsid yields,second HEK293 cell line [1],similar
same,intact vector genomes,second HEK293 cell line [1],similar
same,percent full capsids,"[2]; DMSO added two hours post-transfection, compared to the other additives",higher percent full capsids
same,VG titer,"[2]; additive added two hours post-transfection, all tested concentrations (Table 5), over control conditions without additive, ddPCR, crude lysate",general increase
same,VG titer,"second HEK293 cell line [3]; FIG. 9A, 0.5% to 2.25% DMSO two hours post-transfection, up to a DMSO concentration of 1.5%",increased
same,capsid titer,"second HEK293 cell line [3]; FIG. 9B, 0.5% to 2.25% DMSO two hours post-transfection, up to a DMSO concentration of 1.5%",increased or comparable
same,percent full capsids,"second HEK293 cell line [3]; FIG. 9C, 0.5% to 2.25% DMSO two hours post-transfection",increased
same,VG titer,"second HEK293 cell line [3]; FIG. 10A, 0.75% DMSO two hours post-transfection compared with 0% DMSO",increased
same,VG titer,"second HEK293 cell line [3]; FIG. 10A, 1.5% DMSO two hours post-transfection compared with 0.75% DMSO",comparable
same,capsid titer,"second HEK293 cell line [3]; FIG. 10B, 0.75% DMSO two hours post-transfection compared with 0% DMSO",increased
same,capsid titer,"second HEK293 cell line [3]; FIG. 10B, 1.5% DMSO two hours post-transfection compared with 0.75% DMSO",decreased
same,percent full capsids,"second HEK293 cell line [3]; FIG. 10C, 0.75% DMSO two hours post-transfection compared with 0% DMSO",comparable
same,percent full capsids,"second HEK293 cell line [3]; FIG. 10C, 1.5% DMSO two hours post-transfection compared with 0.75% DMSO",increased
same,percent yield of full capsids,[4],higher percent yield of full capsids
